# Test results reported in article PMC3445516 (PLoS ONE, 2012).
# Columns and labels:
# [1] = target: p38α (Homo sapiens, UniProt Q16539); conditions: 10 and 100 nM
# Method: Phosphorylation of 3.5 µg of p38 substrate was detected in a reaction having 1 µCi [γ-^32P] ATP (Perkin Elmer Life Sciences), 50 µM ATP, 50 ng active recombinant p38 in 50 µL kinase buffer containing 25 mM Tris-HCl, pH 7.5, 10 mM MgCl2, 5 mM β-glycerophosphate, 0.1 mM Na3VO4 and 2 mM DTT. The reaction was incubated at 30°C for 10 minutes and 25 µL of the reaction was spotted on Whatman P81 filter paper. The filter paper was washed 3 times in 0.5% phosphoric acid, air dried and counted using Beckman LS6500 multipurpose scintillation counter. Percent p38 inhibition was graphed using GraphPad Prism software 5.0.
# [2] = tested on: LPS-stimulated TNFα synthesis; set-up: method as in PMID 14561090; conditions: acute rat model of LPS-stimulated TNFα synthesis; cited from earlier work
# [3] = set-up: method as in PMID 14561090; conditions: cited from earlier work
# [4] = target: T1, ALK (Homo sapiens, UniProt Q9UM73); assay: Ambit kinase profiling, competition binding; conditions: compound concentration 10 uM, read-out: Percent Competition
# T1 construct: purchased Ambit Biosciences (KINOMEscan)
# Excerpt: (§1) Supplement pone.0044653.s004.xls, sheet "Compound 122" | column: Percent Competition
# [5] = target: T2, ANKK1 (Homo sapiens, UniProt Q8NFD2); assay: Ambit kinase profiling, competition binding; conditions: compound concentration 10 uM, read-out: Percent Competition
# T2 construct: purchased Ambit Biosciences (KINOMEscan)
# Excerpt: as §1
# [6] = target: T3, CAMKK2 (Homo sapiens, UniProt Q96RR4); assay: Ambit kinase profiling, competition binding; conditions: compound concentration 10 uM, read-out: Percent Competition
# T3 construct: purchased Ambit Biosciences (KINOMEscan)
# T3 sequence (Q96RR4 whole entry): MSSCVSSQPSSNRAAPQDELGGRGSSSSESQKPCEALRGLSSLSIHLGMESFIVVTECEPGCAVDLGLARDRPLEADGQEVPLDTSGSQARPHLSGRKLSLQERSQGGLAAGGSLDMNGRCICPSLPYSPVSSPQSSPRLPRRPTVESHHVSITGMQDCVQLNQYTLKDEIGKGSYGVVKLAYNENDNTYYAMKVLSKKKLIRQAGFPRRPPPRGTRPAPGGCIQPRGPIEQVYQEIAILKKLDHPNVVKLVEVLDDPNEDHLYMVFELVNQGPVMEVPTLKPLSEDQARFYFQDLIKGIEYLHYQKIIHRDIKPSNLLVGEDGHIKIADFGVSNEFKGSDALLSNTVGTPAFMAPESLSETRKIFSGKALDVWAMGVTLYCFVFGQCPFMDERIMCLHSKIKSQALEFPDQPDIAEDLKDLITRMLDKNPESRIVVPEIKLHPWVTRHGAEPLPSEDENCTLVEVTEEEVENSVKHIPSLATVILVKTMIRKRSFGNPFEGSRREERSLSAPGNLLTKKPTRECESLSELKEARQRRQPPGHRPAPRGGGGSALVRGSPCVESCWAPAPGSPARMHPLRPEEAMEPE
# Excerpt: as §1
# [7] = target: T4, CHEK1 (Homo sapiens, UniProt O14757); assay: Ambit kinase profiling, competition binding; conditions: compound concentration 10 uM
# T4 construct: purchased Ambit Biosciences (KINOMEscan)
# T4 sequence (O14757 whole entry): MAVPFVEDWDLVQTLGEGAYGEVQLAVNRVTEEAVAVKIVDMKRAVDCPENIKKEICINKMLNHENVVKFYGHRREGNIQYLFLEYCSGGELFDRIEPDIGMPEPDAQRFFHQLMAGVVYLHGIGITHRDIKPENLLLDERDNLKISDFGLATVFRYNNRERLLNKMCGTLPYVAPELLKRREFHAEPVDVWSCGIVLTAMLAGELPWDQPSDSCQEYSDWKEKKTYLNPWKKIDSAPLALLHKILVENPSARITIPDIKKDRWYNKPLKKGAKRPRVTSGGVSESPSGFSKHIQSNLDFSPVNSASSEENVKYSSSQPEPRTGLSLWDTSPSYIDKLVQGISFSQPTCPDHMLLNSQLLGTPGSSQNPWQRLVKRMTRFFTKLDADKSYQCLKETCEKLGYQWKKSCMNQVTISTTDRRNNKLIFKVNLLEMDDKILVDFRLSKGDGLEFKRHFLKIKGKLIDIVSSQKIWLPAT
# Excerpt: as §1
# [8] = target: T5, DCAMKL2 (Homo sapiens, UniProt Q8N568); assay: Ambit kinase profiling, competition binding; conditions: compound concentration 10 uM, read-out: Percent Competition
# T5 construct: purchased Ambit Biosciences (KINOMEscan)
# Excerpt: as §1
# [9] = target: T6, EPHA5 (Homo sapiens, UniProt P54756); assay: Ambit kinase profiling, competition binding; conditions: compound concentration 10 uM
# T6 construct: purchased Ambit Biosciences (KINOMEscan)
# Excerpt: as §1
# [10] = target: T7, EPHA7 (Homo sapiens, UniProt Q15375); assay: Ambit kinase profiling, competition binding; conditions: compound concentration 10 uM, read-out: Percent Competition
# T7 construct: purchased Ambit Biosciences (KINOMEscan)
# T7 sequence (Q15375 28-998): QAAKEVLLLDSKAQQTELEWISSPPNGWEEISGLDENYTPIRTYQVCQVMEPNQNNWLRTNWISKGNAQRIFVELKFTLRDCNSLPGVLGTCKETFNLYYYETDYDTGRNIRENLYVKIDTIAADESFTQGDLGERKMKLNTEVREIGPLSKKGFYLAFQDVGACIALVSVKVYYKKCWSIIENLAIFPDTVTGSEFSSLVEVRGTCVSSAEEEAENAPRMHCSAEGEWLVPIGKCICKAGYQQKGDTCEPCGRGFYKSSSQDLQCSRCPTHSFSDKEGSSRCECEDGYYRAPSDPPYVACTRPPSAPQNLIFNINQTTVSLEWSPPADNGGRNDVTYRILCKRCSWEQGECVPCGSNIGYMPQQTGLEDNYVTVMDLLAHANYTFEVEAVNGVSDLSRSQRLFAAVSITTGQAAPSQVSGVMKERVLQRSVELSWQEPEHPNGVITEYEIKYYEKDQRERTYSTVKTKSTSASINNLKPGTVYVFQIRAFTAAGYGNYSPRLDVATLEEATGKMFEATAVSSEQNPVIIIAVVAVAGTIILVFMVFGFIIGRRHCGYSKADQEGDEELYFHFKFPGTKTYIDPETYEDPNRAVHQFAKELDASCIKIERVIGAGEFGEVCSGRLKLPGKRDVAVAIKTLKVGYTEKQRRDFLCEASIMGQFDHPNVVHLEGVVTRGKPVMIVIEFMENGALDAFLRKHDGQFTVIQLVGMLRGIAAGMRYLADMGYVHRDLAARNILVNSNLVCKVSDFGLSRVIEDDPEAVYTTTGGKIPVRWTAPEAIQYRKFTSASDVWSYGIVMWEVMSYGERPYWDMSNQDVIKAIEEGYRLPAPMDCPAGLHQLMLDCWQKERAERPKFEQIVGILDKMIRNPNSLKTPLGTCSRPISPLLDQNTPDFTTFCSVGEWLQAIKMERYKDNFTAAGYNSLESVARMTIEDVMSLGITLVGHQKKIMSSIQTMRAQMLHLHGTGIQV
# Excerpt: as §1
# [11] = target: T8, IKK-beta (Homo sapiens, UniProt O14920); assay: Ambit kinase profiling, competition binding; conditions: compound concentration 10 uM, read-out: Percent Competition
# T8 construct: purchased Ambit Biosciences (KINOMEscan)
# T8 sequence (O14920 whole entry): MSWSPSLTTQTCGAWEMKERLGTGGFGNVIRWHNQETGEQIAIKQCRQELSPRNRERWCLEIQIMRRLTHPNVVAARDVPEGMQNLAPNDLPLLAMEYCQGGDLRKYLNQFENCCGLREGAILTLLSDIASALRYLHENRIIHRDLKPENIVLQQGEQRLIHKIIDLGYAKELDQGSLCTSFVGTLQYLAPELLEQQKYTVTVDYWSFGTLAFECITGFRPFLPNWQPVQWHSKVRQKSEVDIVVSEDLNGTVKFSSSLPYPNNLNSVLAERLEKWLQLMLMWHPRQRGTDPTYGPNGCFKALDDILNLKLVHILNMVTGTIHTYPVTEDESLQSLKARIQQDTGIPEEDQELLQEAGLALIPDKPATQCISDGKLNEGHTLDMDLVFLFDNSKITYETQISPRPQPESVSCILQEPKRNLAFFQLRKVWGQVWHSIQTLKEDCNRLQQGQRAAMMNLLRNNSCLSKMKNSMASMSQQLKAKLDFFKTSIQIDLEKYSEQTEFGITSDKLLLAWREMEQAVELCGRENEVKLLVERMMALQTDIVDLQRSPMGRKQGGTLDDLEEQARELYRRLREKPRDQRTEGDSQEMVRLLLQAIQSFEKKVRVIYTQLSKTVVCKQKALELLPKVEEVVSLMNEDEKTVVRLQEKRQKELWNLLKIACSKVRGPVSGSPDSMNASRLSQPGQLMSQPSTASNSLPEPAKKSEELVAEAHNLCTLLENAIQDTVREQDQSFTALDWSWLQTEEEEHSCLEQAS
# Excerpt: as §1
# [12] = target: T9, MARK4 (Homo sapiens, UniProt Q96L34); assay: Ambit kinase profiling, competition binding; conditions: compound concentration 10 uM
# T9 construct: purchased Ambit Biosciences (KINOMEscan)
# T9 sequence (Q96L34 whole entry): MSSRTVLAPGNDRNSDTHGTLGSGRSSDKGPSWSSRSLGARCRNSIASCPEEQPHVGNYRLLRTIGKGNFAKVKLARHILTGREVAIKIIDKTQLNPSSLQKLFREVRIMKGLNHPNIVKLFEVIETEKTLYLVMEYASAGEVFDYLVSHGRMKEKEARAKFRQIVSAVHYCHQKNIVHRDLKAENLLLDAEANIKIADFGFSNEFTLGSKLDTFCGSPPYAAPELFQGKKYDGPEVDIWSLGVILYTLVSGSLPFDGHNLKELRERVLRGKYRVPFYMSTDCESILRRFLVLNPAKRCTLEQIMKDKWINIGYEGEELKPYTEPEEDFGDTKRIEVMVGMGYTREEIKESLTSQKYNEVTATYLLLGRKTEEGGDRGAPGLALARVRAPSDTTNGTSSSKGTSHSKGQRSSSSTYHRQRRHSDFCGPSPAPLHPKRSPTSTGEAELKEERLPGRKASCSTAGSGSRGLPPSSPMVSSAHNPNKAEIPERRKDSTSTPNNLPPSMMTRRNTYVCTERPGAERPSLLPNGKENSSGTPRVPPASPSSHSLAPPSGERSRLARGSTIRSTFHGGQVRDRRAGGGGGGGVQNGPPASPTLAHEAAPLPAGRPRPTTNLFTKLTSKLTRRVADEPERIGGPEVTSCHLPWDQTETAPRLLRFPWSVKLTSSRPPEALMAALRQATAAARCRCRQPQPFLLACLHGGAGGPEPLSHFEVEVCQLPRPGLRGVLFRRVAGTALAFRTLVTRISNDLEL
# Excerpt: as §1
# [13] = target: T10, MINK (Homo sapiens, UniProt Q8N4C8); assay: Ambit kinase profiling, competition binding; conditions: compound concentration 10 uM, read-out: Percent Competition
# T10 construct: purchased Ambit Biosciences (KINOMEscan)
# Excerpt: as §1
# [14] = target: T11, MYO3A (Homo sapiens, UniProt Q8NEV4); assay: Ambit kinase profiling, competition binding; conditions: compound concentration 10 uM, read-out: Percent Competition
# T11 construct: purchased Ambit Biosciences (KINOMEscan)
# Excerpt: as §1
# [15] = target: T12, NDR2 (Homo sapiens, UniProt Q9Y2H1); assay: Ambit kinase profiling, competition binding; conditions: compound concentration 10 uM, read-out: Percent Competition
# T12 construct: purchased Ambit Biosciences (KINOMEscan)
# Excerpt: as §1
# [16] = target: T13, SRPK1 (Homo sapiens, UniProt Q96SB4); assay: Ambit kinase profiling, competition binding; conditions: compound concentration 10 uM, read-out: Percent Competition
# T13 construct: purchased Ambit Biosciences (KINOMEscan)
# T13 sequence (Q96SB4 whole entry): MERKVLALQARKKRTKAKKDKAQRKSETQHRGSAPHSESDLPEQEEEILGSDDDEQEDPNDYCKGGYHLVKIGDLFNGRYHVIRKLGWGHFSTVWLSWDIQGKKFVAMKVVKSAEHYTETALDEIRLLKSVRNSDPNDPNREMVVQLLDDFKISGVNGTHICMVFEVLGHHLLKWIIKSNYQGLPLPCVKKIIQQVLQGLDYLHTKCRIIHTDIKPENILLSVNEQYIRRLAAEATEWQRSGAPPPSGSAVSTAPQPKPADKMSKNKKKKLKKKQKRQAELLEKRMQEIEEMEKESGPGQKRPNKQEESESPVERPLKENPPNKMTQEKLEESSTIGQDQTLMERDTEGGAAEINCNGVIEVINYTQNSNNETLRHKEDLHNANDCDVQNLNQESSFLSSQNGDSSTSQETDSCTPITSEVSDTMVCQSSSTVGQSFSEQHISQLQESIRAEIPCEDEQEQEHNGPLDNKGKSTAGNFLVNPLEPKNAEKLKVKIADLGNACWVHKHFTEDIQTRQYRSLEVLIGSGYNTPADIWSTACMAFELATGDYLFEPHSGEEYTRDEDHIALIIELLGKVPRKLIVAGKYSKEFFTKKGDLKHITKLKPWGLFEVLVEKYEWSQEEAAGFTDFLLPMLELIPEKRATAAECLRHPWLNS
# Excerpt: as §1
# [17] = target: T14, TNK2 (Homo sapiens, UniProt Q07912); assay: Ambit kinase profiling, competition binding; conditions: compound concentration 10 uM, read-out: Percent Competition
# T14 construct: purchased Ambit Biosciences (KINOMEscan)
# Excerpt: as §1
# [18] = target: T15, ULK2 (Homo sapiens, UniProt Q8IYT8); assay: Ambit kinase profiling, competition binding; conditions: compound concentration 10 uM, read-out: Percent Competition
# T15 construct: purchased Ambit Biosciences (KINOMEscan)
# Excerpt: as §1
# [19] = target: T16, WEE1 (Homo sapiens, UniProt P30291); assay: Ambit kinase profiling, competition binding; conditions: compound concentration 10 uM, read-out: Percent Competition
# T16 construct: purchased Ambit Biosciences (KINOMEscan)
# T16 sequence (P30291 whole entry): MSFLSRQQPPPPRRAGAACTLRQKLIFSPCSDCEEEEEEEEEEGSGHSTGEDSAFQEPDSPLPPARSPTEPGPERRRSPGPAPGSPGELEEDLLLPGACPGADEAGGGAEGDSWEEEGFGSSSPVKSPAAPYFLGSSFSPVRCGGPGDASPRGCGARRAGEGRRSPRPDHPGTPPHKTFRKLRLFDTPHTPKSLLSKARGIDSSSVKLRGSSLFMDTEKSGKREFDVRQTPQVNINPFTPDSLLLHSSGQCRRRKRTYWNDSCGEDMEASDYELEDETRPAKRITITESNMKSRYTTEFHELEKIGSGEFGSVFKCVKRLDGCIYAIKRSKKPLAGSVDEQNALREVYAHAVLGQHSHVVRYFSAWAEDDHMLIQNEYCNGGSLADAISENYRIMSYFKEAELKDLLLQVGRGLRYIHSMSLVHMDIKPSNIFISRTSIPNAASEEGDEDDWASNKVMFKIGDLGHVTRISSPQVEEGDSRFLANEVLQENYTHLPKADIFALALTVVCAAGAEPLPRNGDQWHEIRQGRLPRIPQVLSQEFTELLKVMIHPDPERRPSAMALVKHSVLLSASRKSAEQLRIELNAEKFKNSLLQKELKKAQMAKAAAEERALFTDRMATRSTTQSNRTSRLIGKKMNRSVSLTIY
# Excerpt: as §1
# [20] = tested on: FLT3(ITD); assay: Ambit kinase profiling, competition binding; set-up: species or system human; conditions: compound concentration 10 uM
# Excerpt: as §1
inhibition at 10 µM [4] [%],inhibition at 10 µM [5] [%],inhibition at 10 µM [6] [%],Percent Competition [7] [%],inhibition at 10 µM [8] [%],Percent Competition [9] [%],inhibition at 10 µM [10] [%],inhibition at 10 µM [11] [%],Percent Competition [12] [%],inhibition at 10 µM [13] [%],inhibition at 10 µM [14] [%],inhibition at 10 µM [15] [%],inhibition at 10 µM [16] [%],inhibition at 10 µM [17] [%],inhibition at 10 µM [18] [%],inhibition at 10 µM [19] [%],Percent Competition [20] [%],Compound,inhibition of p38α [1],in vivo efficacy [2],pharmacokinetic (PK) parameters [3]
–,–,–,–,–,–,–,–,–,–,–,–,–,–,–,–,–,CC(O)CNc1cc(-c2[nH]c3cccnc3c2-c2ccc(F)cc2)ccn1 (centres unmarked) [Compound 140],most potent,in vivo efficacy has been demonstrated,favorable pharmacokinetic (PK) parameters
< 50,< 50,< 50,<50,< 50,<50,< 50,< 50,<50,< 50,< 50,< 50,< 50,< 50,< 50,< 50,<50,Fc1ccc(-c2c(-c3ccncc3)[nH]c3nccnc23)cc1 [RO1155697-000-005],–,–,–
